These results are taken from PMC11085442 (Molecules, 2024).

The test system of data set [1] is PC 12 cell line. In words: Cytotoxicity assay (CCK-8) on PC 12. Type of data set: cell-based, rat. As to conditions: 20 μM. How it is done: RAW264.7 cells were cultured in 96-well plates at a density of 3 × 10^4 cells/mL in Dulbecco’s modified Eagle’s medium (DMEM, Gibco, Baltimore, MD, USA) with 10% fetal calf serum (Gibco, Baltimore, MD, USA), 100 U/mL penicillin, and 100 μg/mL streptomycin. Plates were incubated in an atmosphere containing 5% CO2 at […]. PC 12 cells were cultured in 96-well plates at a density of 8000 cells/mL in Dulbecco’s modified Eagle’s medium (DMEM, Gibco, Baltimore, MD, USA) with 10% fetal calf serum (Gibco, Baltimore, MD, USA), 100 U/mL penicillin, and 100 μg/mL streptomycin. Plates were incubated in an atmosphere containing 5% CO2 at 37 °C. Cells were treated with different concentrations of test compounds for 48 h. Then, 10 μL CCK-8 solution were added to all the wells. After 4 h incubation, the absorbance at 450 nm of each well was measured in a multiscan photometer.

Data set [2] deals with LPS-stimulated RAW264.7 cell lines. Kind of data set: LPS-induced NO production (Griess) in RAW264.7. Type of data set: cell-based, murine. The following applies: for The production of NO: LPS-stimulated RAW264.7, LPS group 49.86 ± 0.62, control 1.20 ± 0.38; for inhibitory activity against NO production compared with curcumin: 10 μM. How it is done:
RAW 264.7 cells were plated in 96-well plates at a density of 1 × 10^4 cells/well and incubated overnight at 37 °C under 5% CO2. […] Dexamethasone (Solarbio, D8040, Beijing, China) was used as the positive control. Then, 24 h later, NO production was determined by measuring the nitrite content using Griess reagents. Fifty microliters of culture supernatants were transferred to 96-well plates and mixed with 50 μL Griess reagent A. After incubation at room temperature for 5 min, the samples were mixed with an equal volume Griess reagent B for another 5 min. The absorbance of each mixture at 540 nm was measured using a microplate reader.

Data set [3] has as its system H2O2-stimulated PC 12 cell lines. Kind of data set: Protection against H2O2-induced oxidative damage (CCK-8). Type of data set: cell-based, rat. As to conditions: for viability at 5 µM / viability at 10 µM / viability at 20 µM: Rattus norvegicus; for viability at 5 µM: PC-12, Dose 5 μM; for viability at 5 µM / viability at 10 µM / viability at 20 µM / Cell viability: H2O2-induced oxidative damage, PC 12, H2O2 group 49.69 ± 1.37, control 100; for viability at 10 µM: PC-12, Dose 10 μM; for viability at 20 µM: PC-12, Dose 20 μM; for anti-oxidant capacity compared with curcumin: 10 μM; for anti-oxidant capacity compared with curcumin / cell survival rate (anti-oxidant): H2O2-stimulated PC 12; for Cell viability: in % (unit assumed); for cell survival rate (anti-oxidant): at 20 μM. How it is done: PC 12 cells were seeded in 96-well plates at a density of 8000 cells/well and incubated overnight. […] After incubating under the same conditions for 24 h, 10 μL CCK-8 solution was added to each well. After 2 h incubation, the absorbance of each well was measured at 450 nm using a microplated reader (Multiskan MK-3, Thermo, Waltham, MA, USA).

The test system of data set [4] is PC 12 cell lines. Kind of data set: Radiation protection in vitro (CCK-8). As to conditions: for radiation protection capacity / radiation protection capability compared with curcumin: 10 μM; for radiation protection capacity: versus radiation group; for Cell viability / viability at 20 µM / viability at 5 µM / viability at 10 µM: radiation 8.0 Gy, PC 12, radiation group 50.22 ± 1.08; for Cell viability: in % (unit assumed); for viability at 20 µM / viability at 5 µM / viability at 10 µM: Rattus norvegicus; for viability at 20 µM: PC-12, Dose 20 μM; for viability at 5 µM: PC-12, Dose 5 μM; for viability at 10 µM: PC-12, Dose 10 μM. Type of data set: cell-based, rat. How it is done: The rat adrenal pheochromocytoma cells (PC 12) were used for in vitro studies. A Cell Counting Kit-8 (CCK-8, Applygen Technologies Co., Ltd., Beijing, China) assay was used to determine cell viability. […] Cells were irradiated with dose of 8.0 Gy at a dose rate of 0.8 Gy/min. Then, 10 μL CCK-8 solution was added to all the wells. After 4 h incubation, the absorbance at 450 nm of each well was measured in a multiscan photometer.

Data set [5] in a line: Aqueous solubility determination by UV spectrophotometer. It is filed as physicochemical. As to conditions: water, thermodynamic from solid, saturated solution concentration. How it is done: A UV spectrophotometer was used to test the aqueous solubility of target compounds. Each compound to be tested was prepared into solutions with concentrations of 0.2 M, 0.1 M, 0.05 M, 0.025 M, 0.0125 M, 0.00625 M, and 0.003125 M. The optical density (OD) values of the prepared solutions were measured using an ultraviolet spectrophotometer, and concentration–OD-value standard curves were drawn for each compound to be tested. The saturated solutions of the target compounds were diluted by 5000 times and detected using an ultraviolet spectrophotometer to measure the OD values, respectively. The measured OD values were substituted into the corresponding concentration-OD value standard curve to calculate the diluted concentrations, which were multiplied by 5000 to obtain the saturated solution concentrations of the target compounds.

The structures appear in SMILES notation. Values after ≈ are worked out from the molar mass of the structure shown.

Take `CCOc1cc(/C=C/C(=O)CC(=O)/C=C/c2cc(CN(C)C)c(O)c(OC)c2)ccc1O` [Compound 1]: the “effect on PC 12 cell proliferation” value in data set [1] was “significant promoting effect”. For the same molecule, the “The production of NO” value in data set [2] (Dose 5 μM) is 44.55 ± 0.55; in data set [2] (Dose 10 μM), 34.25 ± 0.96; in data set [2] (Dose 15 μM), 12.30 ± 0.90. Further, in data set [3], the viability at 5 µM worked out at 63.9 ± 2.86%. The viability at 10 µM in data set [3] was 74.7 ± 4.82%. The viability at 20 µM in data set [3] worked out at 86.4 ± 3.89%; in data set [4] it was 89.7 ± 8.17%. For the same molecule, the radiation protection capacity entry in data set [4] is “a certain degree of radiation protection capacity”. Further, the Cell viability in data set [4] (Dose 5 μM) is 47.61 ± 1.20; in data set [4] (Dose 10 μM), 57.30 ± 1.29.

With `COc1ccc(/C=C/C(=O)CC(=O)/C=C/c2cc(CN(C)C)c(O)c(OC)c2)cc1OC` [Compound 5], in data set [1], the “effect on PC 12 cell proliferation” value is listed as “significant promoting effect”. The “The production of NO” value in data set [2] (Dose 5 μM) is reported as 34.62 ± 0.76; in data set [2] (Dose 10 μM), 16.89 ± 1.33; in data set [2] (Dose 15 μM), 9.97 ± 1.11. The “anti-oxidant capacity compared with curcumin” value in data set [3] is recorded as “better anti-oxidant capacity”. For the same molecule, the viability at 5 µM in data set [3] is 71.02 ± 0.56%. Further, in data set [3], the viability at 10 µM was found to be 84.4 ± 1.86%. Besides, the viability at 20 µM in data set [3] was 103 ± 3.36%. Moreover, the radiation protection capacity result in data set [4] is recorded as “a certain degree of radiation protection capacity”. The Cell viability is recorded as 58.70 ± 4.93 in data set [4] (Dose 5 μM), 64.93 ± 4.67 in data set [4] (Dose 10 μM) and 104.23 ± 2.86 in data set [4] (Dose 20 μM).

On to `COc1ccc(/C=C/C(=O)CC(=O)/C=C/c2cc(CN(C)C)c(O)c(OC)c2)cc1OC` [Compound 5a], for which the “effect on PC 12 cell proliferation” value in data set [1] is recorded as “significant promoting effect”. For the same molecule, the “inhibitory activity against NO production compared with curcumin” value in data set [2] was “better inhibitory activity”. Further, the “The production of NO” value in data set [2] (Dose 5 μM) came to 33.90 ± 1.94; in data set [2] (Dose 10 μM), 15.60 ± 2.78; in data set [2] (Dose 15 μM), 9.88 ± 0.53. In addition, the “anti-oxidant capacity compared with curcumin” value in data set [3] is reported as “better anti-oxidant capacity”. Also, the Cell viability in data set [3] (Dose 5 μM) is given as 75.15 ± 5.90; in data set [3] (Dose 10 μM) it was 84.53 ± 2.36; in data set [3] (Dose 20 μM), 106.17 ± 3.34. Also, in data set [3], the “cell survival rate (anti-oxidant)” value came to 106%. Moreover, the “radiation protection capability compared with curcumin” value in data set [4] (irradiated PC 12) is reported as “better radiation protection capability”. Also, in data set [4], the radiation protection capacity entry is “a certain degree of radiation protection capacity”. In data set [4], the viability at 5 µM is 58.2 ± 1.86%. In addition, the viability at 10 µM in data set [4] was 68.7 ± 5.9%. In data set [4], the viability at 20 µM was determined as 105 ± 5.01%. Besides, the concentration in solution in data set [5] (solubility) was 118 mg/mL (≈ 268 mM).

`COc1ccc(/C=C/C(=O)CC(=O)/C=C/c2cc(CN(C)C)c(O)c(OC)c2)cc1O` [Compound 11]: the “effect on PC 12 cell proliferation” value in data set [1] was “significant promoting effect”. The “The production of NO” value in data set [2] (Dose 5 μM) is recorded as 35.85 ± 0.30; in data set [2] (Dose 10 μM), 19.36 ± 1.66; in data set [2] (Dose 15 μM), 7.59 ± 0.35. For the same molecule, the Cell viability in data set [3] (Dose 5 μM) is 63.24 ± 1.07; in data set [3] (Dose 10 μM), 72.52 ± 0.32; in data set [3] (Dose 20 μM) it was 96.33 ± 1.04. In addition, the “cell survival rate (anti-oxidant)” value in data set [3] amounted to 96%. In addition, in data set [4], the radiation protection capacity result is given as “a certain degree of radiation protection capacity”. Also, the viability at 5 µM in data set [4] amounted to 65.09 ± 0.4%. Further, in data set [4], the viability at 10 µM is 84.5 ± 3.4%. Also, the viability at 20 µM in data set [4] was found to be 94.2 ± 4.35%. The “cell survival rate (radiation protection)” value in data set [4] (at 20 μM, irradiated PC 12) is 94%.

`COc1cc(/C=C/C(=O)CC(=O)/C=C/c2cc(C)c(O)cc2C)cc(CN(C)C)c1O` [Compound 12a]: the “inhibitory activity against NO production compared with curcumin” value in data set [2] was “better inhibitory activity”. Also, the “The production of NO” value in data set [2] (Dose 5 μM) turned out to be 18.38 ± 1.63; in data set [2] (Dose 10 μM), 12.76 ± 0.83; in data set [2] (Dose 15 μM), 9.05 ± 0.72. Further, in data set [3], the “anti-oxidant capacity compared with curcumin” value is given as “better anti-oxidant capacity”. Also, the viability at 5 µM in data set [3] was found to be 76.3 ± 3.14%. Further, the viability at 10 µM in data set [3] came to 81.9 ± 2.3%. Further, in data set [3], the viability at 20 µM amounted to 88.1 ± 2.09%. In addition, in data set [4], the radiation protection capacity entry is on record as “a certain degree of radiation protection capacity”. Also, the Cell viability in data set [4] (Dose 5 μM) is listed as 59.04 ± 1.00; in data set [4] (Dose 10 μM), 63.19 ± 1.90; in data set [4] (Dose 20 μM), 77.34 ± 2.18. Besides, the solubility in data set [5] came out at 206 mg/mL (≈ 487 mM).

Take `COc1cc(/C=C/C(=O)CC(=O)/C=C/c2c(C)cc(O)cc2C)cc(CN(C)C)c1O` [Compound 13a]: in data set [2], the “inhibitory activity against NO production compared with curcumin” value is on record as “better inhibitory activity”. Further, the results for the “The production of NO” value in data set [2] (Dose 5 μM), in data set [2] (Dose 10 μM) and in data set [2] (Dose 15 μM) were 17.80 ± 2.19, 9.09 ± 1.21 and 5.58 ± 0.11, respectively. Also, in data set [3], the viability at 5 µM is 71.5 ± 2.53%. Besides, in data set [3], the viability at 10 µM amounted to 77.9 ± 3.02%. For the same molecule, in data set [3], the viability at 20 µM is 90.2 ± 3.77%. Besides, the “radiation protection capability compared with curcumin” value in data set [4] (irradiated PC 12) is on record as “better radiation protection capability”. The radiation protection capacity result in data set [4] is “a certain degree of radiation protection capacity”. Moreover, the Cell viability in data set [4] (Dose 5 μM) was 66.55 ± 2.11; in data set [4] (Dose 10 μM), 75.50 ± 1.73; in data set [4] (Dose 20 μM), 88.50 ± 1.18. The solubility in data set [5] was 285 mg/mL (≈ 674 mM).

Turning to `COc1cc(/C=C/C(=O)CC(=O)/C=C/c2c(OC)cc(O)cc2OC)cc(CN(C)C)c1O` [Compound 14a], the “inhibitory activity against NO production compared with curcumin” value in data set [2] was “better inhibitory activity”. Further, the “The production of NO” value was 29.10 ± 0.37 in data set [2] (Dose 5 μM), 13.47 ± 0.31 in data set [2] (Dose 10 μM) and 7.49 ± 0.40 in data set [2] (Dose 15 μM). Further, the viability at 5 µM in data set [3] was 68 ± 3.05%. The viability at 10 µM in data set [3] came out at 77.1 ± 0.64%. The viability at 20 µM in data set [3] was found to be 81.9 ± 1.35%. The “radiation protection capability compared with curcumin” value in data set [4] (irradiated PC 12) is given as “better radiation protection capability”. Further, the radiation protection capacity entry in data set [4] was “a certain degree of radiation protection capacity”. The Cell viability is given as 64.83 ± 0.66 in data set [4] (Dose 5 μM), 68.68 ± 1.31 in data set [4] (Dose 10 μM) and 77.66 ± 1.75 in data set [4] (Dose 20 μM). Besides, the concentration in solution in data set [5] (solubility) was 126 mg/mL (≈ 277 mM).
